The values below come from publication PMC12596731, “Cys–Lys stapling for unprotected peptides via tunable linkers” (National Science Review, 2025).

Data set [1] can be described thus: Cys-Lys stapling of unprotected peptides with unsymmetrical linker (1.5 equiv): Cys thiol displaces phthalimide from N-thiophthalimide (disulfide, ~1 min), then ring closure by Lys amine attack on pentafluorophenyl ester with DIPEA (4 equiv). The conditions noted are these: the molecule shown is the open-chain precursor, CH3CN:H2O 3:1, 25.0 °C, 0.167 h.
Data set [2] has as its system human bladder cancer cells. The data set is classed as cell-based. The conditions noted are these: 48 h. Here is the method: XI. Biological Experiments
Cell Counting Kit (CCK-8) was used to evaluate the proliferation inhibition activity of the compounds, and the half inhibitory concentration IC50 value was determined by single-concentration primary screening and multi-concentration.
Fetal Bovine Serum (FBS) 04-001-1acs, Biological industries; PBS phosphate buffer (PB180327), penicillin-streptomycin sulfate double resistant mixture (100× ) […]
Leibovitz's L-15 medium (PM151010), Wuhan Punosai Life Technology Co., LTD.
CCK-8 Kit, Biosharp life sciences; Trypsin-edta Digestive Solution (05200-056), GIBCO; Cellular DMSO (D2650 -100ML), SIGMA; 96-well cell culture plate, Corning Life Sciences (Wujiang) Co., LTD. 25, 75cm2 cell culture bottle, Corning Life Sciences (Wujiang) Co., LTD. Blood cell counting plate, Shanghai Qiujing Biochemical Reagent Instrument Co., LTD. Cisplatin (D8810), Solarbio life sciences;
Instruments and equipment
Super clean workbench (sw-cj-2fd), Sujing Aetna; Microscope (nib -100), Ningbo Yongxin Optical Co., Ltd; Carbon dioxide cell incubator (MCO -18AC), Phcbi; Electric constant temperature water bath pot (HWS -24), Shanghai Yiheng Technology Co., Ltd; Multifunctional microplate reader (Multiskan MK3), Thermo; One ten-thousandth balance (MS105DU), METTLER; Centrifuge (TD4N), ChangshaYingtai Instrument Co., Ltd; Mixer (SCI-VS), Selo Czech Republic, USA.
The samples were dissolved in the cell -grade DMSO after accurately weighing to generate the 10 mM drug solution. The drug solution was further diluted to tenfold detection concentration by cell culture medium.
Standard Operation Procedure
Detection principle of cytotoxicity (CCK -8 method):
The detection principle is that the CCK-8 reagent contains WST-8, which is reduced S52 to a highly water-soluble yellow methyl product (formazan) by dehydrogenase in the cell mitochondria under the action of electron carrier 1-methoxy-5-methylphenazine dimethyl sulfate (1-methoxy PMS). The number of the nail products produced is directly proportional to the number of living cells.
(1) Inoculate cells: The cells were prepared into single cell suspension with the culture medium containing 10% fetal bovine serum, and the 96 well plates were inoculated with 90 uL cell culture medium (Adherent cell viewed 5×10^4/mL and Suspension cell viewed 9×10^4/mL) per well, then cultured at 5% CO2 and 37 ℃ for 24 hours.
(2) Add the sample solution to be tested: Add 10 µL sample solution to each well. One concentration was set for each sample during preliminary screening and three multiple holes were set for each concentration. Eight concentration gradients were set for each sample for IC50 determination and three multiple holes were set for each concentration.
The 96 well plates were cultured at 5% CO2 and 37 ℃ for 48 hours. The experiment was divided into a blank group, control group and drug group.
(3) Color development: The old culture medium and drug solution of adherent cells were sucked out, then 100 µL of CCK-8 solution (diluted ten times with the basic medium) was added and the suspension cells were directly added 10 µL of CCK-8 stock solution. Culture at 37 ℃ with 5% CO2 for 1-4 h (dark operation, real-time observation).
(4) Result detection: The absorbance was measured at 450 nm with an enzyme labeling instrument and the original data and results were recorded.
(5) The toxicity is expressed by cell inhibition, and the calculation formula is as follows:
Cell inhibition (%) = (ODControl-ODDrug) / (ODControl-ODBlank)×100%. The IC50 was calculated by the software graphpad prism 8 (version 8.0.2, from GraphPad SoftwareInc)，and the experimental results are expressed in ± SD.
6) Positive control: Cisplatin.

pIC50: −log10 of the molar value.

`CC(=O)N[C@@H](CCC(N)=O)C(=O)N[C@@H](CO)C(=O)N[C@@H](CCC(N)=O)C(=O)N[C@@H](CCC(N)=O)C(=O)N[C@H](C(=O)N[C@@H](Cc1ccccc1)C(=O)N[C@@H](CSS/C(=C/Cl)CCCCCCCCC(=O)Oc1c(F)c(F)c(F)c(F)c1F)C(=O)N[C@@H](CC(N)=O)C(=O)N[C@@H](CC(C)C)C(=O)N[C@@H](Cc1c[nH]c2ccccc12)C(=O)N[C@@H](CCCNC(=N)N)C(=O)N[C@@H](CC(C)C)C(=O)N[C@@H](CC(C)C)C(=O)N[C@@H](CCCCN)C(=O)N[C@@H](CCC(N)=O)C(=O)N[C@@H](CC(N)=O)C(N)=O)[C@@H](C)O`: the ring closure, isolated yield in data set [1] (40-membered ring) stood at 75%.

As for `CC[C@H](C)[C@H](NC(=O)[C@@H]1CCCN1C(=O)[C@H](CSS/C(=C/Cl)CCCC(=O)Oc1c(F)c(F)c(F)c(F)c1F)NC(C)=O)C(=O)N[C@@H](CCSC)C(=O)N[C@@H](CCC(=O)O)C(=O)N[C@@H](CC(=O)O)C(=O)N[C@@H](CCCNC(=N)N)C(=O)N[C@@H](CCCCN)C(=O)N1CCC[C@H]1C(N)=O` [Ac-Cys(S-linker 3b-OPfp)-Pro-Ile-Met-Glu-Asp-Arg-Lys-Pro-NH2], the ring closure, isolated yield in data set [1] (35-membered ring) worked out at 81%.

Turning to `CC[C@H](C)[C@H](NC(=O)[C@@H]1CCCN1C(=O)[C@H](CSS/C(=C/Cl)CCCCCC(=O)Oc1c(F)c(F)c(F)c(F)c1F)NC(C)=O)C(=O)N[C@@H](CCSC)C(=O)N[C@@H](CCC(=O)O)C(=O)N[C@@H](CC(=O)O)C(=O)N[C@@H](CCCNC(=N)N)C(=O)N[C@@H](CCCCN)C(=O)N1CCC[C@H]1C(N)=O` [Ac-Cys(S-linker 3d-OPfp)-Pro-Ile-Met-Glu-Asp-Arg-Lys-Pro-NH2], the ring closure, isolated yield in data set [1] (37-membered ring) was determined as 78%.

As for `CC[C@H](C)[C@H](NC(=O)[C@@H]1CCCN1C(=O)[C@H](CSS/C(=C/Cl)COCC(=O)Oc1c(F)c(F)c(F)c(F)c1F)NC(C)=O)C(=O)N[C@@H](CCSC)C(=O)N[C@@H](CCC(=O)O)C(=O)N[C@@H](CC(=O)O)C(=O)N[C@@H](CCCNC(=N)N)C(=O)N[C@@H](CCCCN)C(=O)N1CCC[C@H]1C(N)=O` [Ac-Cys(S-linker 3f-OPfp)-Pro-Ile-Met-Glu-Asp-Arg-Lys-Pro-NH2], in data set [1] (35-membered ring), the ring closure, isolated yield is 75%.

Turning to `CC[C@H](C)[C@H](NC(=O)[C@@H]1CCCN1C(=O)[C@H](CSS/C(=C/Cl)CCOc1ccccc1C(=O)Oc1c(F)c(F)c(F)c(F)c1F)NC(C)=O)C(=O)N[C@@H](CCSC)C(=O)N[C@@H](CCC(=O)O)C(=O)N[C@@H](CC(=O)O)C(=O)N[C@@H](CCCNC(=N)N)C(=O)N[C@@H](CCCCN)C(=O)N1CCC[C@H]1C(N)=O` [Ac-Cys(S-linker 3i-OPfp)-Pro-Ile-Met-Glu-Asp-Arg-Lys-Pro-NH2], the ring closure, isolated yield in data set [1] (37-membered ring) was determined as 65%.

Consider `CC[C@H](C)[C@H](NC(=O)[C@@H]1CCCN1C(=O)[C@H](CSS/C(=C/Cl)CCOc1cccc(C(=O)Oc2c(F)c(F)c(F)c(F)c2F)c1)NC(C)=O)C(=O)N[C@@H](CCSC)C(=O)N[C@@H](CCC(=O)O)C(=O)N[C@@H](CC(=O)O)C(=O)N[C@@H](CCCNC(=N)N)C(=O)N[C@@H](CCCCN)C(=O)N1CCC[C@H]1C(N)=O` [Ac-Cys(S-linker 3k-OPfp)-Pro-Ile-Met-Glu-Asp-Arg-Lys-Pro-NH2], for which the ring closure, isolated yield in data set [1] (38-membered ring) came out at 72%.

As to `CC[C@H](C)[C@H](NC(=O)[C@@H]1CCCN1C(=O)[C@H](CSS/C(=C/Cl)CCOc1ccc(C(=O)Oc2c(F)c(F)c(F)c(F)c2F)cc1)NC(C)=O)C(=O)N[C@@H](CCSC)C(=O)N[C@@H](CCC(=O)O)C(=O)N[C@@H](CC(=O)O)C(=O)N[C@@H](CCCNC(=N)N)C(=O)N[C@@H](CCCCN)C(=O)N1CCC[C@H]1C(N)=O` [Ac-Cys(S-linker 3m-OPfp)-Pro-Ile-Met-Glu-Asp-Arg-Lys-Pro-NH2], the ring closure, isolated yield in data set [1] (39-membered ring) is 62%.

For `CC(=O)N[C@@H](CCCCN)C(=O)N[C@@H](C)C(=O)N[C@@H](C)C(=O)N[C@@H](C)C(=O)N[C@@H](CSS/C(=C/Cl)CCC(=O)Oc1c(F)c(F)c(F)c(F)c1F)C(=O)N[C@@H](Cc1ccccc1)C(N)=O` [Ac-Lys-Ala-Ala-Ala-Cys(S-linker 3a-OPfp)-Phe-NH2], the ring closure, isolated yield in data set [1] (25-membered ring) is 72%.

With `CC(=O)N[C@@H](CCCCN)C(=O)N[C@@H](C)C(=O)N[C@@H](C)C(=O)N[C@@H](C)C(=O)N[C@@H](CSS/C(=C/Cl)CCCC(=O)Oc1c(F)c(F)c(F)c(F)c1F)C(=O)N[C@@H](Cc1ccccc1)C(N)=O` [Ac-Lys-Ala-Ala-Ala-Cys(S-linker 3b-OPfp)-Phe-NH2], the ring closure, isolated yield in data set [1] (26-membered ring) amounted to 76%.

`CC(=O)N[C@@H](CCCCN)C(=O)N[C@@H](C)C(=O)N[C@@H](C)C(=O)N[C@@H](C)C(=O)N[C@@H](CSS/C(=C/Cl)CCCCC(=O)Oc1c(F)c(F)c(F)c(F)c1F)C(=O)N[C@@H](Cc1ccccc1)C(N)=O` [Ac-Lys-Ala-Ala-Ala-Cys(S-linker 3c-OPfp)-Phe-NH2]: the ring closure, isolated yield in data set [1] (27-membered ring) was found to be 79%.

For `CC(=O)N[C@@H](CCCCN)C(=O)N[C@@H](C)C(=O)N[C@@H](C)C(=O)N[C@@H](C)C(=O)N[C@@H](CSS/C(=C/Cl)c1cccc(C(=O)Oc2c(F)c(F)c(F)c(F)c2F)c1)C(=O)N[C@@H](Cc1ccccc1)C(N)=O` [Ac-Lys-Ala-Ala-Ala-Cys(S-linker 3j-OPfp)-Phe-NH2], the ring closure, isolated yield in data set [1] (26-membered ring) was 72%.

For `C[C@H](NC(=O)[C@H](C)NC(=O)[C@@H](N)CCCCN)C(=O)N[C@@H](C)C(=O)N[C@@H](CSS/C(=C/Cl)CCC(=O)Oc1c(F)c(F)c(F)c(F)c1F)C(=O)N[C@@H](Cc1ccccc1)C(N)=O` [H-Lys-Ala-Ala-Ala-Cys(S-linker 3a-OPfp)-Phe-NH2], the ring closure, isolated yield in data set [1] (25-membered ring) amounted to 68%.

One may read the pIC50 as the IC50 on a negative log10 scale, so that one unit is a factor of ten. Read a low pIC50 as a large IC50. Consider `CC(=O)N[C@H](C(=O)N[C@@H](CO)C(=O)N[C@@H](Cc1ccccc1)C(=O)N[C@H]1CCCCNC(=O)CC/C(=C\Cl)SSC[C@@H](C(=O)N[C@@H](CC(C)C)C(=O)N[C@@H](CC(C)C)C(=O)N[C@@H](CO)C(=O)N[C@@H](CCCNC(=N)N)C(N)=O)NC(=O)[C@H](Cc2c[nH]c3ccccc23)NC(=O)[C@H](Cc2ccc(O)cc2)NC(=O)[C@H](CCC(N)=O)NC1=O)[C@@H](C)O` [Peptide 5k], for which the negative logarithm of the IC50 (pIC50) in data set [2] was 4.84.

`CC(=O)N[C@H](C(=O)N[C@@H](CO)C(=O)N[C@@H](Cc1ccccc1)C(=O)N[C@H]1CCCCNC(=O)COC/C(Cl)=C\SSC[C@@H](C(=O)N[C@@H](CC(C)C)C(=O)N[C@@H](CC(C)C)C(=O)N[C@@H](CO)C(=O)N[C@@H](CCCNC(=N)N)C(N)=O)NC(=O)[C@H](Cc2c[nH]c3ccccc23)NC(=O)[C@H](Cc2ccc(O)cc2)NC(=O)[C@H](CCC(N)=O)NC1=O)[C@@H](C)O` [Peptide 5m] showed a negative logarithm of the IC50 (pIC50) in data set [2] of 4.66.

In data set [2], `CC(=O)N[C@H](C(=O)N[C@@H](CO)C(=O)N[C@@H](Cc1ccccc1)C(=O)N[C@H]1CCCCNC(=O)c2ccccc2OCC/C(Cl)=C\SSC[C@@H](C(=O)N[C@@H](CC(C)C)C(=O)N[C@@H](CC(C)C)C(=O)N[C@@H](CO)C(=O)N[C@@H](CCCNC(=N)N)C(N)=O)NC(=O)[C@H](Cc2c[nH]c3ccccc23)NC(=O)[C@H](Cc2ccc(O)cc2)NC(=O)[C@H](CCC(N)=O)NC1=O)[C@@H](C)O` [Peptide 5p] gave a negative-log IC50 (pIC50) of 4.83. This pIC50 and that of the compound before are within 0.2 log units of each other.
